Columns and labels:
[1] = test system: C2C12 muscle cells; assay: Analysis of glucose absorption (2-deoxyglucose) in differentiated C2C12 muscle cells; assay type: cell-based; settings: test materials 10 μM, times relative to control group
Method in brief: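 Uptake of 0.2 μCi 2-deoxyglucose over 20 min, counted radiometrically in lysed cells. Before tracer, compounds (10 μM) were applied for 30 min to C2C12 cells differentiated 6 days in 1% serum and equilibrated 3 h in 5 mM glucose KRB.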

[2] = test system: AMPK; assay: Measurement of AMPK activity by Western blot in C2C12 cells; assay type: cell-based; set-up: key to AMPK activity (degree of phosphorylation of serine-79 and threonine-172): fold increase in threonine-172 phosphorylation; AMPK activity (degree of phosphorylation of serine-79): unit not given here; settings: 10 μM for 50 minutes; for AMPK activity (degree of phosphorylation of serine-79 and threonine-172): no superscript: Western blot of serine-79 and threonine-172 phosphorylation; for AMPK activity (degree of phosphorylation of serine-79): footnote a: Western blot of serine-79 phosphorylation; for AMPK activity (class: degree of phosphorylation of threonine-172): strong/mild/weak
Method in brief: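 Western blot readout of AMPK Thr-172 and ACC Ser-79 phosphorylation, normalised against ERK, served as the activity measure. Cells were C2C12 after differentiation, treated 50 minutes with 10 μM test material. Grading by Thr-172 increase: ≥3-fold strong, 1-3-fold mild, <1-fold weak.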

| SMILES | Glucose absorption [1] | AMPK activity (degree of phosphorylation of serine-79 and threonine-172) [2] | AMPK activity (degree of phosphorylation of serine-79) [2] | AMPK activity (class: degree of phosphorylation of threonine-172) [2] |
| --- | --- | --- | --- | --- |
| COc1cccc(CNc2nc(C(C)c3ccccc3)nc3ccccc23)c1 (stereo not drawn) [Compound 372, (3-Methoxybenzyl)-[2-(1-phenylethyl)-quinazolino-4-yl]-amine] | 1.1 | 6.3 | – | – |
| CCSc1nc(NCc2cccc(F)c2)c2ccccc2n1 [Compound 9, (2-Ethylsulfanylquinazolino-4-yl)-(3-fluorobenzyl)-amine] | 2.0 | – | 5.5^a | – |
| COc1cccc(CNc2nc(C3CC3)nc3ccccc23)c1 [Compound 383, (2-Cyclopropylquinazolino-4-yl)-(3-methoxybenzyl)-amine] | 1.4 | 2.2 | – | – |
| COc1cc(CNc2nc(N3CCCC3)nc3ccccc23)cc(OC)c1 [Compound 303, (3,5-Dimethoxybenzyl)-(2-pyrrolidino-1-ylquinazolino-4-yl)-amine] | 1.0 | 1.0 | – | – |
| COc1cc(CNc2nc(N3CCOCC3)nc3ccccc23)cc(OC)c1 [Compound 305, (3,5-Dimethoxybenzyl)-(2-morpholino-4-ylquinazolino-4-yl)-amine] | 0.8 | 2.1 | – | – |
| CCSc1nc(NCCN2CCOCC2)c2ccccc2n1 [Compound 11, (2-Ethylsulfanylquinazolino-4-yl)-(2-morpholino-4-ylethyl)-amine] | 1.0 | – | 3.2^a | – |
| COc1cccc(CNc2nc(C(C)C)nc3ccccc23)c1 [Compound 176, (2-Isopropylquinazolino-4-yl)-(3-methoxybenzyl)-amine] | 2.4 | 4.4 | – | strong (“strong” means that the degree of phosphorylation of threonine-172 increased by 3 times or more) |
| CCCNc1nc(C(Cl)(Cl)Cl)nc2ccccc12 [Compound 7, Propyl-(2-trichloromethylquinazolino-4-yl)-amine] | 1.5 | – | 4.4^a | – |
| COc1ccc(CNc2nc(C(C)C)nc3ccccc23)cc1OC [Compound 324, (3,4-Dimethoxybenzyl)-(2-isopropylquinazolino-4-yl)-amine] | 1.3 | 2.3 | – | – |
| CC(C)(C)c1nc(NCc2ccccc2)c2ccccc2n1 [Compound 187, Benzyl-(2-tert-butylquinazolino-4-yl)-amine] | 2.4 | 0.7 | – | mild (“mild” means that the degree of phosphorylation of threonine-172 increased by 1 to 3 times) |
| COc1ccc(OC)c(CNc2nc(C(C)c3ccccc3)nc3ccccc23)c1 (stereo not drawn) [Compound 380, (2,5-Dimethoxybenzyl)-[2-(1-phenylethyl)-quinazolino-4-yl]-amine] | 1.0 | 1.9 | – | – |
| COc1ccc(CNc2nc(C3CCCCC3)nc3ccccc23)cc1 [Compound 201, (2-Cyclohexylquinazolino-4-yl)-(4-methoxybenzyl)-amine] | 1.7 | 2.8 | – | strong (“strong” means that the degree of phosphorylation of threonine-172 increased by 3 times or more) |
| CCOc1cc2ncnc(NCCc3ccccn3)c2cc1OCC [Compound 17, (6,7-Diethoxyquinazolino-4-yl)-(2-pyridino-2-ylethyl)-amine] | 1.2 | – | 2.2^a | – |
| CCOc1cc2ncnc(NCc3ccc(Cl)cc3)c2cc1OCC [Compound 18, (4-Chlorobenzyl)-(6,7-diethoxyquinazolino-4-yl)-amine] | 1.0 | – | 6.0^a | – |
| Brc1ccccc1CNc1nc(-c2ccccc2)nc2ccccc12 [Compound 155, (2-Bromobenzyl)-(2-phenylquinazolino-4-yl)-amine] | 2.7 | 1.3 | – | mild (“mild” means that the degree of phosphorylation of threonine-172 increased by 1 to 3 times) |
| CC(C)CCNc1nc(-c2ccccc2)nc2ccccc12 [Compound 130, (3-Methylbutyl)-(2-phenylquinazolino-4-yl)-amine] | 2.2 | 1.8 | – | strong (“strong” means that the degree of phosphorylation of threonine-172 increased by 3 times or more) |
| COc1cccc(CNc2ncnc3ccccc23)c1OC [Compound 408, (2,3-Dimethoxybenzyl)-quinazolino-4-ylamine] | 1.6 | 3.5 | – | – |

| SMILES | Glucose absorption [1] | AMPK activity (degree of phosphorylation of serine-79 and threonine-172) [2] | AMPK activity (degree of phosphorylation of serine-79) [2] | AMPK activity (class: degree of phosphorylation of threonine-172) [2] |
| --- | --- | --- | --- | --- |
| COc1ccc(OC)c(CNc2nc(C3CC3)nc3ccccc23)c1 [Compound 391, (2-Cyclopropylquinazolino-4-yl)-(2,5-dimethoxybenzyl)-amine] | 1.2 | 7.1 | – | – |
| COc1ccc(CNc2nc(C)nc3ccccc23)cc1 [Compound 165, (4-Methoxybenzyl)-(2-methylquinazolino-4-yl)-amine] | 2.5 | 5.2 | – | strong (“strong” means that the degree of phosphorylation of threonine-172 increased by 3 times or more) |
| Cc1nc(NCc2ccccc2)c2ccccc2n1 [Compound 163, Benzyl-(2-methylquinazolino-4-yl)-amine] | 2.5 | 2.8 | – | strong (“strong” means that the degree of phosphorylation of threonine-172 increased by 3 times or more) |
| COc1ccc(CNc2nc(N3CCCC3)nc3ccccc23)c(OC)c1 [Compound 291, (2,4-Dimethoxybenzyl)-(2-pyrrolidino-1-ylquinazolino-4-yl)-amine] | 0.8 | 1.5 | – | – |
| CCCc1nc(NCc2cc(OC)cc(OC)c2)c2ccccc2n1 [Compound 398, (3,5-Dimethoxybenzyl)-(2-propylquinazolino-4-yl)-amine] | 1.4 | 7.8 | – | – |
| Cc1ccc(CCNc2nc(-c3ccccc3)nc3ccccc23)cc1 [Compound 119, (2-Phenylquinazolino-4-yl)-(2-p-tollylethyl)-amine] | 2.6 | 2.3 | – | strong (“strong” means that the degree of phosphorylation of threonine-172 increased by 3 times or more) |
| COc1cc(OC)c(CNc2ncnc3ccccc23)c(OC)c1 [Compound 414, Quinazolino-4-yl-(2,4,6-trimethoxybenzyl)-amine] | 1.5 | 2.9 | – | – |
| Brc1ccc(CCNc2nc(-c3ccccc3)nc3ccccc23)cc1 [Compound 137, [2-(4-Bromophenyl)-ethyl]-(2-phenylquinazolino-4-yl)-amine] | 2.4 | 3.1 | – | strong (“strong” means that the degree of phosphorylation of threonine-172 increased by 3 times or more) |
| CCCc1nc(NCc2cccc(OC)c2OC)c2ccccc2n1 [Compound 397, (2,3-Dimethoxybenzyl)-(2-propylquinazolino-4-yl)-amine] | 1.3 | 6.5 | – | – |
| COc1ccc(CSc2nc(-c3ccccc3)nc3ccccc23)c(OC)c1 [Compound 274, 4-(2,4-Dimethoxybenzylsulfanyl)-2-phenylquinazoline] | 0.8 | 1.9 | – | – |
| CCSc1nc(NC(C)C)c2ccccc2n1 [Compound 8, (2-Ethylsulfanylquinazolino-4-yl)-isopropylamine] | 1.2 | – | 3.0^a | – |
| COc1cccc(CNc2nc(C(OC)c3ccccc3)nc3ccccc23)c1OC (stereo not drawn) [Compound 364, (2,3-Dimethoxybenzyl)-[2-(methoxyphenylmethyl)-quinazolino-4-yl]-amine] | 1.3 | 1.2 | – | – |
| CCCc1nc(NCc2ccc3c(c2)OCO3)c2ccccc2n1 [Compound 396, Benzo[1,3]dioxol-5-ylmethyl-(2-propylquinazolino-4-yl)-amine] | 1.3 | 7.3 | – | – |
| COc1cc(CNc2ncnc3ccccc23)cc(OC)c1OC [Compound 411, Quinazolino-4-yl-(3,4,5-trimethoxybenzyl)-amine] | 1.2 | 1.8 | – | – |
| COc1ccccc1CNc1nc(C(C)c2ccccc2)nc2ccccc12 (stereo not drawn) [Compound 371, (2-Methoxybenzyl)-[2-(1-phenylethyl)-quinazolino-4-yl]-amine] | 1.2 | 2.8 | – | – |
| COc1ccccc1CNc1nc(N2CCCC2)nc2ccccc12 [Compound 275, (2-Methoxybenzyl)-(2-pyrrolidino-1-ylquinazolino-4-yl)-amine] | 0.8 | 2.1 | – | – |
